Experimental data published in publication PMC9841524, “Structure-Based Rational Design of Small α-Helical Peptides with Broad-Spectrum Activity against Multidrug-Resistant Pathogens” (Journal of Medicinal Chemistry, 2022).
Where two headings read alike, the source gives them in different places. Where no end group is shown, it is not given here.

Key:
MRSA (ATCC BAA-1556) = conditions: broth microdilution (CLSI), CAMHB, 37 °C, 24 h
Method: (§1) Description of the characteristics and growth conditions of various bacterial strains used in the study are provided in the Supporting Information (Table S3). Antibacterial susceptibility testing was carried out using a standard microtiter dilution method recommended by the clinical and laboratory standard institute (CLSI) and measured as a minimum inhibitory concentration (MIC), the lowest peptide concentration that inhibited bacterial growth. Briefly, the overnight grown cultures in the recommended broth for each bacterial strain were diluted in cation-adjusted Mueller Hinton Broth (CAMHB) to give an inoculum of 10^6 colony-forming units (CFU)/mL. A 2-fold serially diluted test peptide solution (100 μL) was added to the microtiter plates. After adding bacterial suspension (100 μL), the plates were incubated at 37 °C for 24 h, and the MICs were determined. The same protocol was used to determine the MICs in the presence of salts and serum except using the media supplemented with various cationic salts (150 mM NaCl, 4.5 mM KCl, 6 mM NH4Cl, 1 mM MgCl2, and 2 mM CaCl2) or 25% FBS. The data was acquired from three independent assays performed in triplicate.
(§2) The bacterial strains employed in this study were obtained from the American Type Culture Collection (ATCC). Each strain was propagated as recommended by the ATCC, and each strain was stored as a frozen glycerol stock at -80°C. A bacterial colony was grown on the appropriate agar as indicated in Table S1 and was used to inoculate the appropriate broth. The culture was incubated at the appropriate conditions, as mentioned in Table S1. Following the incubation, the culture was diluted to an optical density 625 nm (OD625) of 0.1 in cation adjusted Mueller Hinton Broth (CAMHB), which is equivalent to 1 × 10^8 CFU/mL. The culture was further diluted to 1 × 10^6 CFU/mL, which was used to conduct the MIC determination assay. For the S. pneumoniae strains, CAMHB + 2.5% lysed horse blood was required for the assay. The strains with their […]
(§3) Table S3. Description of the characteristics and growth conditions of various bacterial strains

E. coli (ATCC 25922) = conditions: broth microdilution (CLSI), CAMHB, 37 °C, 24 h
Method: as §1, §2, §3

[1] = system: human red blood cells (hRBCs); assay: Hemolytic assay; type: cell-based; conditions: 2 h, 37 °C
Method: The hemolytic activity of all peptides (1a–8d) was determined using hRBC. The assay was conducted by adding 75 μL of 2-fold serially diluted peptides to 75 μL of hRBC suspension (4% in PBS). The plates were incubated for 2 h at 37 °C without agitation. In order to determine the hemolysis at each tested concentration of peptides, the plate was centrifuged, and 100 μL of the supernatant was transferred to another 96-well plate to determine hemoglobin release spectrophotometrically at 567 nm. Percent hemolysis was calculated by the following formula [drawing 1] where A represents the absorbance of the peptide sample at 567 nm and A0 and At represent zero percent and 100% hemolysis determined in phosphate buffer saline and 1% Triton X-100, respectively.

[2] = system: K. pneumoniae (ATCCBAA-1705); assay: MIC, standard microtiter dilution (CLSI); type: cell-based, Klebsiella pneumoniae; conditions: broth microdilution (CLSI), CAMHB, 37 °C, 24 h
Method: as §1, §2, §3

S. aureus (ATCC 29213) = assay: MIC, standard microtiter dilution (CLSI); type: cell-based; conditions: broth microdilution (CLSI), CAMHB, 37 °C, 24 h
Method: as §1, §2, §3

[3] = system: P. aeruginosa (ATCC 27883); assay: MIC, standard microtiter dilution (CLSI); type: cell-based, Pseudomonas aeruginosa; conditions: broth microdilution (CLSI), CAMHB, 37 °C, 24 h
Method: as §1, §2, §3

[4] = 10^6 CFU/mL, highest MIC of three independent experiments in triplicate
[5] = hRBC suspension 4% in PBS, hemoglobin release at 567 nm, 1% Triton X-100 = 100%
[6] = value in parentheses (μM), hRBC 4% in PBS, 567 nm

Substance	MIC, MRSA (ATCC BAA-1556) (MRSA (ATCC BAA-1556); [4])	MIC, MRSA (ATCC BAA-1556) (MRSA (ATCC BAA-1556); value in parentheses (μM))	MIC, E. coli (ATCC 25922) (E. coli (ATCC 25922); [4])	MIC, E. coli (ATCC 25922) (E. coli (ATCC 25922); value in parentheses (μM))	HC50 (concentration at which 50% hemolysis was observed) [1, 5]	HC50 (concentration at which 50% hemolysis was observed) [1, 6]	MIC, K. pneumoniae (ATCCBAA-1705) [2, 4]	MIC, K. pneumoniae (ATCCBAA-1705) ([2]; value in parentheses (μM))	MIC, S. aureus (ATCC 29213) (S. aureus (ATCC 29213); [4])	MIC, S. aureus (ATCC 29213) (S. aureus (ATCC 29213); value in parentheses (μM))	MIC, P. aeruginosa (ATCC 27883) [3, 4]	MIC, P. aeruginosa (ATCC 27883) ([3]; value in parentheses (μM))
RWWRRAWRAA-NH2 [4c]	> 100 µg/mL	> 70.74 µM	> 100 µg/mL	> 70.74 µM	> 500 µg/mL	> 353.69 µM	> 100 µg/mL	> 70.74 µM	> 100 µg/mL	> 70.74 µM	> 100 µg/mL	> 70.74 µM
RRWRRWW-NH2 [1d]	100 µg/mL	83.30 µM	> 100 µg/mL	> 83.30 µM	> 500 µg/mL	> 416.52 µM	> 100 µg/mL	> 83.30 µM	100 µg/mL	83.30 µM	> 100 µg/mL	> 83.30 µM
Ac-RWIRRWIRWWR-NH2 [5e]	50 µg/mL	27.61 µM	100 µg/mL	55.21 µM	60 µg/mL	33.13 µM	100 µg/mL	55.21 µM	50 µg/mL	27.61 µM	50 µg/mL	27.61 µM
H-RWWRRWR-NH2 [1e]	100 µg/mL	83.30 µM	> 100 µg/mL	> 83.30 µM	> 500 µg/mL	> 416.52 µM	> 100 µg/mL	> 83.30 µM	100 µg/mL	83.30 µM	> 100 µg/mL	> 83.30 µM
WRRWARRW-NH2 [2d]	> 100 µg/mL	> 78.65 µM	> 100 µg/mL	> 78.65 µM	> 500 µg/mL	> 393.23 µM	> 100 µg/mL	> 78.65 µM	> 100 µg/mL	> 78.65 µM	> 100 µg/mL	> 78.65 µM
RRWWRRW-NH2 [1b]	100 µg/mL	83.30 µM	> 100 µg/mL	> 83.30 µM	> 500 µg/mL	> 416.52 µM	> 100 µg/mL	> 83.30 µM	50 µg/mL	41.65 µM	> 100 µg/mL	> 83.30 µM
RWWRRAWR-NH2 [2b]	> 100 µg/mL	> 78.65 µM	> 100 µg/mL	> 78.65 µM	> 500 µg/mL	> 393.23 µM	> 100 µg/mL	> 78.65 µM	> 100 µg/mL	> 78.65 µM	> 100 µg/mL	> 78.65 µM
RWARRWWR-NH2 [2c]	> 100 µg/mL	> 78.65 µM	> 100 µg/mL	> 78.65 µM	> 500 µg/mL	> 393.23 µM	> 100 µg/mL	> 78.65 µM	> 100 µg/mL	> 78.65 µM	> 100 µg/mL	> 78.65 µM
RWWRAAWRR-NH2 [3d]	> 100 µg/mL	> 74.48 µM	> 100 µg/mL	> 74.48 µM	> 500 µg/mL	> 372.42 µM	> 100 µg/mL	> 74.48 µM	> 100 µg/mL	> 74.48 µM	> 100 µg/mL	> 74.48 µM
ARRWWRRW-NH2 [2e]	100 µg/mL	> 78.65 µM	> 100 µg/mL	> 78.65 µM	> 500 µg/mL	> 393.23 µM	> 100 µg/mL	> 78.65 µM	100 µg/mL	78.65 µM	> 100 µg/mL	> 78.65 µM
RWWRRAWRA-NH2 [3a]	> 100 µg/mL	> 74.48 µM	> 100 µg/mL	> 74.48 µM	> 500 µg/mL	> 372.42 µM	> 100 µg/mL	> 74.48 µM	> 100 µg/mL	> 74.48 µM	> 100 µg/mL	> 74.48 µM
RAWRRWWRA-NH2 [3b]	> 100 µg/mL	> 74.48 µM	> 100 µg/mL	> 74.48 µM	> 500 µg/mL	> 372.42 µM	> 100 µg/mL	> 74.48 µM	> 100 µg/mL	> 74.48 µM	> 100 µg/mL	> 74.48 µM
AWWRRAWRR-NH2 [3f]	> 100 µg/mL	> 74.48 µM	> 100 µg/mL	> 74.48 µM	> 500 µg/mL	> 372.42 µM	> 100 µg/mL	> 74.48 µM	> 100 µg/mL	> 74.48 µM	> 100 µg/mL	> 74.48 µM
